We go through six sequences from patent US11213563B2, “Polypeptide and use thereof” (Genoimmune Therapeutics Co., Ltd., priority 2016, dated 2022).

Assay [1] relates to human non-small cell lung adenocarcinoma cell line H2087-polypeptide FILDGLYSV
Nature of the assay: Polypeptide-specific DC-CTL vaccine in subcutaneous tumor-modeled NOD/SCID mice. It counts as in vivo. To be noted: CTLs stimulated by DCs loaded with the polypeptide, i.v. 1×10^8 cells/mouse; vs wild-type CTL group. On the procedure: (§1) After isolated with Ficoll solution from 600 to 900 ml anticoagulant peripheral blood from a healthy volunteer, the collected PBMCs in a concentration of 2×10^7 cells/0.5 ml were intraperitoneally injected into each of 300 NOD SCID mice without immune leakage, so as to reconstruct a human immune system in the NOD SCID mice, with the mice after 4 weeks selected for subsequent inoculation of the human non-small cell lung adenocarcinoma cell line H2087-polypeptide […] obtained in 6.2.
(§2) The human non-small cell lung adenocarcinoma cell line H2087-polypeptide […] (SEQ ID NO:1) obtained in 6.2 was incubated in DMEM medium containing 10% fetal calf serum, 100 U/mL penicillin and 100 U/mL streptomycin in an incubator under 37° C. and 5% CO2, and then the cells were centrifuged at 3000 rpm for collection. The collected cells were washed with sterile physiological saline three times, and then diluted appropriately. To 40 μl tumor cell suspension, 10 μl 0.4% […] was added for staining, subsequently the tumor cell suspension in a concentration of 1×10^8 cells/ml was prepared after counting under microscope. 100 μl of the tumor cell suspension was inoculated into each of the NOD/SCID mice by subcutaneous injection at 4 weeks post immune reconstruction in 6.3, with daily observation of the presence/absence of infection at inoculation sites, the increase/decrease of tumor size (in the case of presence of a tumor), and measurement of the major axis (a) and the minor axis (b) of a tumor by a vernier caliper every 2 or 3 days (where the tumor size=a×b×b/2).
The number of T lymphocytes was counted at day 0, 7, 14 and 21 post incubation, for calculation of cell proliferation index (PI), where PI=cell number after proliferation/cell number seeded. The cytotoxic T lymphocytes (CTLs) were harvested at day 21 post incubation, which were suspended in 0.2 ml physiological saline, and then injected intravenously to the subcutaneous tumor-modeled NOD/SCID mice via the tail in an amount of 1×10^8 cells/mouse. The vital signs of the mice were observed after administration, and the major axis (a) and the minor axis (b) of a tumor were measured by a vernier caliper every 2 days for calculation of tumor size.

Assay [2] has the same test system. Put plainly: DC polypeptide vaccine in subcutaneous tumor-modeled NOD/SCID mice. The assay is classed as in vivo. To be noted: DCs loaded with the polypeptide, intracutaneous, 2 injections; vs DCs loaded with wild-type polypeptide. On the procedure:
as §1
as §2, with “size=a×b×b/2). After 7 days from inoculation, a tumor in a size of rice grain was touchable at the inoculation site. After that, the subcutaneous tumor-modeled NOD/SCID mice (modeled with H2087-polypeptide […] (SEQ ID NO:1)) were treated with a polypeptide+complete Freund's adjuvant vaccine, a polypeptide+DCs vaccine, a lentivirus-infected DCs vaccine and a DC-CTL vaccine respectively, with the tumor size and mouse survival rate observed and recorded every 2 days.” for “size=a×b×b/2).”
Peripheral blood mononuclear cells (PBMCs) in 100 to 150 mL anticoagulant peripheral blood obtained from a healthy volunteer were isolated with Ficoll solution. The collected PBMCs suspended in the RPMI 1640 medium in a concentration of 2×10^6-3×10^6 cells/ml were incubated at 37° C. for 2 hours, obtaining adherent monocytes which can be induced into DCs, and non-adherent peripheral blood lymphocytes (PBLs) for use.
The subcutaneous tumor-modeled NOD/SCID mice obtained in 6.4 of the example were randomly divided into seven groups as below, with 6 mice per group.
For each of the above seven groups, DCs (respectively loaded with the wild-type polypeptide, the mutant polypeptide or each of five mutant polypeptide's variants) were washed with physiological saline three times and then diluted with the physiological saline to a concentration of (4.0±0.5)×10^7 cells/ml, and 0.1 ml of the resulting diluent (in a dosage of (4.0±0.5)×10^6 cells) was administrated to each inner thigh close to the inguen of each mouse by intracutaneous injection, at one week interval for 2 injections in total. The vital signs of the mice were observed after administration, and the major axis (a) and the minor axis (b) of a tumor were measured by a vernier caliper every 2 days for calculation of tumor size according to a formula of a×b×b/2, with the weight change and survival rate observed and recorded.

The test system is the same in assay [3]. Nature of the assay: Polypeptide + Freund's adjuvant vaccine in subcutaneous tumor-modeled NOD/SCID mice. The note with it: adjuvant+polypeptide 100 μg s.c., 4 immunizations; vs adjuvant alone and adjuvant+wild-type polypeptide groups. The assay is classed as in vivo. On the procedure: as §1
as §2, with “size=a×b×b/2). After 7 days from inoculation, a tumor in a size of rice grain was touchable at the inoculation site. After that, the subcutaneous tumor-modeled NOD/SCID mice (modeled with H2087-polypeptide […] (SEQ ID NO:1)) were treated with a polypeptide+complete Freund's adjuvant vaccine, a polypeptide+DCs vaccine, a lentivirus-infected DCs vaccine and a DC-CTL vaccine respectively, with the tumor size and mouse survival rate observed and recorded every 2 days.” for “size=a×b×b/2).”
The subcutaneous tumor-modeled NOD/SCID mice obtained in 6.4 of the example 6 were divided into 8 groups randomly as below, with 6 mice per group.
After 2 weeks, differently-immunized mice in 7 groups received respective same-dosage booster immunizations at 2 week interval for 4 times in total, with incomplete Freund's adjuvant for the latter three immunizations.
The general characteristics (including mental state, activity, response, diet, body weight and tumor growth) of the mice were observed daily, where the major axis (a) and the minor axis (b) of a tumor were measured by a vernier caliper every 2 days for calculation of tumor size according to a formula of a×b×b/2, where the mouse survival rate in a time period is calculated by the following formula: Survival rate=the number of survival mice/(the number of survival mice+the number of dead mice)×100%.

A further assay has as its system CD8^+ T cells. Nature of the assay: In vitro stimulation of CD8+ T cells by polypeptide-loaded mature DCs, cell counting. It counts as cell-based, human. To be noted: CD8+ T cells with polypeptide-specific mature DCs, day 10; 2.5 × 10^6 cells before incubation. On the procedure:
Peripheral blood mononuclear cells (PBMCs) in 100 mL peripheral blood obtained from a HLA-A0201-positive healthy volunteer were isolated using the Ficoll solution, where CD8^+ T cells among the PBMCs were isolated with CD8 magnetic beads, and monocytes among the PBMCs were incubated by an adherence method.
The CD8^+ T cells from the volunteer in a well were incubated with the mature DCs obtained, along with IL-21, with addition of IL-2 and IL-7 after 3 days' culture and addition IL-2 and IL-7 again at day 5 and day 7 respectively, after which the collected mixture of cells were counted on day 10, for use in the next enzyme-linked immune-spot assay (ELISPOT) and lactate dehydrogenase (LDH) assay.

Consider FMLDGLYSL, for which the Mouse survival period entry in assay [1] is reported as “prolonging mouse survival period significantly”; in assay [2] it was “prolonging the mouse survival period”; in assay [3], “prolonging mouse survival period effectively”. Besides, the Tumor growth result in assay [1] was “inhibiting tumor growth”; in assay [2], “mitigating tumor growth significantly”; in assay [3] it was “inhibiting tumor growth”. In addition, the “Total number of cells in the well after incubation” value (“Total number of cells in the well” below) with CD8^+ T cells is listed as 1.66 × 10^7.

As to “FLLDGLYSV [mutant polypeptide's variant, Leucine at position 2]”, the Mouse survival period entry in assay [1] was “prolonging mouse survival period significantly”; in assay [2], “prolonging the mouse survival period”; in assay [3], “prolonging mouse survival period effectively”. For the same sequence, the figures for the Tumor growth result in assay [1], in assay [2] and in assay [3] were “inhibiting tumor growth”, “mitigating tumor growth significantly” and “inhibiting tumor growth”, respectively. For the same sequence, in the assay with CD8^+ T cells, the “Total number of cells in the well” value is 1.42 × 10^7.

On to “FILDGLYSV [mutant polypeptide from COL21A1, Serine at position 45 mutated into Leucine]”, for which the Mouse survival period result in assay [1] was “prolonging mouse survival period significantly”; in assay [2], “prolonging the mouse survival period”; in assay [3], “prolonging mouse survival period effectively”. For the same sequence, the results for the Tumor growth result in assay [1], in assay [2] and in assay [3] were “inhibiting tumor growth”, “mitigating tumor growth significantly” and “inhibiting tumor growth”, respectively. The “Total number of cells in the well” value in the assay with CD8^+ T cells was 1.22 × 10^7.

Turning to FMLDGLYSV, the Mouse survival period entry is “prolonging mouse survival period significantly” in assay [1], “prolonging the mouse survival period” in assay [2] and “prolonging mouse survival period effectively” in assay [3]. Besides, the Tumor growth result in assay [1] was “inhibiting tumor growth”; in assay [2] it was “mitigating tumor growth significantly”; in assay [3], “inhibiting tumor growth”. For the same sequence, the “Total number of cells in the well” value with CD8^+ T cells is 1.71 × 10^7.

As for “FLLDGLYSL [mutant polypeptide's variant, Leucine at positions 2 and 9]”, the Mouse survival period result in assay [1] is “prolonging mouse survival period significantly”; in assay [2], “prolonging the mouse survival period”; in assay [3] it was “prolonging mouse survival period effectively”. For the same sequence, the Tumor growth entry in assay [1] is listed as “inhibiting tumor growth”; in assay [2], “mitigating tumor growth significantly”; in assay [3], “inhibiting tumor growth”. Further, in the assay on CD8^+ T cells, the “Total number of cells in the well” value is given as 1.03 × 10^7.

As to “FILDGLYSL [mutant polypeptide's variant, Leucine at position 9]”, the Mouse survival period entry in assay [1] is recorded as “prolonging mouse survival period significantly”; in assay [2], “prolonging the mouse survival period”; in assay [3], “prolonging mouse survival period effectively”. The Tumor growth entry in assay [1] is “inhibiting tumor growth”; in assay [2], “mitigating tumor growth significantly”; in assay [3] it was “inhibiting tumor growth”. In the assay with CD8^+ T cells, the “Total number of cells in the well” value is reported as 1.35 × 10^7.
